Reference: patent US20260008760A1, “DIPEPTIDYL PEPTIDASE 1 INHIBITORS AND USES THEREOF” (Insmed Incorporated, priority 2024, published 2026)

Columns and labels:
Format in all cases: biochemical
[1] = biological target: T1, active mouse DPP1 enzyme (Mus musculus, UniProt P97821); assay: Mouse DPP1 Enzyme IC50 Assay; details: active mouse DPP1 enzyme, H-Gly-Arg-AMC substrate, 10 minutes pre-incubation at 37° C., pH 5.5; average of n runs; read-out: Avg. IC50 (Mouse DPP1 enzyme IC50 value ranges)
T1 construct: Each subunit is composed of an N-terminal fragment, a heavy chain and a light chain; purchased R&D Systems
Protocol: Example 96: Mouse DPP1 Enzyme IC50 Assay
Test articles were applied to active mouse DPP1 enzyme (R&D Systems; Minneapolis, MN) in Assay Buffer (50 mM MES pH 5.5, 50 mM NaCl, 5 mM DTT) in a total reaction volume of 125 μL. 25 μL of compound in Assay Buffer plus […] was first added to 50 μL of active mouse DPP1 enzyme at a concentration of 62.5 pg/μL and allowed to pre-incubate for 10 minutes at 37° C. after which 50 μL of […] H-Gly-Arg-AMC substrate (Bachem; St. Torrance, CA) was added, giving final substrate concentration of 400 µM and a final DMSO concentration of […]. Substrate cleavage was measured for 90 minutes at 37° C., with fluorescence at Excitation/Emission 350/450 nm measured every 5 minutes. DPP1 concentration was interpolated based on its activity relative to a standard curve of recombinant active mouse DPP enzyme. IC50 values for each compound were calculated via the XLFit (IDBS Version 5.3.1.3) Add-On to Microsoft Excel using the four parameter fit equation y=(A+((B−A)/(1+((C/x)^D)))), which appears as equation number 205 (4 Parameter Logistic Model or Sigmoidal Dose-Response Model) in XLFit. Default constraints were used for each Parameter. IC50 was defined as the compound concentration at which 50% of enzyme activity was inhibited when compared to the no-compound control.
In Table 2, *** represent average IC50≤5 nM, ** represents average IC50 in the range of 5-20 nM, and * represents average IC50 in the range of ≥20 nM, where the designations were made solely based on the average value without taking into account of the standard deviations.

[2] = biological target: T2, human DPP1 enzyme (Homo sapiens, UniProt P53634); assay: Human DPP1 Enzyme IC50 Assay; design: was first proteolytically processed into its mature form using recombinant human cathepsin L; purchased R&D Systems; details: activated recombinant human DPP1, 400 μM H-Gly-Arg-AMC, 10 minutes pre-incubation at 37° C., pH 6.0; average of n runs; read-out: Avg. IC50 (Human DPP1 enzyme IC50 value ranges)
Procedure, shortened: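 IC50 came from a four-parameter fit of activity relative to no-compound control, with fluorescence (Ex 350/Em 450 nm) read every 5 min for 90 min at 37 °C using 400 μM final H-Gly-Arg-AMC. Cathepsin L-matured human recombinant DPP1 was preincubated 10 min with compound at pH 6.0 (MES, DTT, 1% DMSO).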
Target sequence in this assay (P53634 25-134 limits assumed): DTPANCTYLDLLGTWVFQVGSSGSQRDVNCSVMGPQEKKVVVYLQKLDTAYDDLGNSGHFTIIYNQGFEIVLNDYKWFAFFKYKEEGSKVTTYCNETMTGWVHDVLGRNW
Target sequence in this assay (P53634 231-394 limits assumed): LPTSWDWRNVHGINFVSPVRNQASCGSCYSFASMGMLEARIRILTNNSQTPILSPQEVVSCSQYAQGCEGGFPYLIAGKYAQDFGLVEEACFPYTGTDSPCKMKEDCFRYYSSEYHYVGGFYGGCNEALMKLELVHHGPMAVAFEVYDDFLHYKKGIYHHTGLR
Target sequence in this assay (P53634 395-463 limits assumed): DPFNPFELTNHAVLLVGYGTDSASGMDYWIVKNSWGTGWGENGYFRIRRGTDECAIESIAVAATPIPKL

[3] = biological target: T2, human DPP1 enzyme; assay: Human DPP1 Enzyme Single-Point Percent Inhibition Testing (HL-60 lysate); design: A crude lysate of HL-60 cells (ATCC; Manassas, VA) was used as a source of human DPP1 enzyme; host or cells: HL-60 cells (crude lysate); details: final compound concentration of 10 nM, 400 μM H-Gly-Arg-AMC, n = 1
Procedure, shortened: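 Enzyme source was HL-60 cell lysate in MES pH 6.0 buffer with NaCl and DTT, pre-incubated 10 min at 37° C with 10 nM compound (final, 1% DMSO). Cleavage of 400 μM H-Gly-Arg-AMC was followed at 350/450 nm over 90 min at 37° C, and percent inhibition was taken against vehicle wells.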
Target sequence in this assay (P53634 25-463): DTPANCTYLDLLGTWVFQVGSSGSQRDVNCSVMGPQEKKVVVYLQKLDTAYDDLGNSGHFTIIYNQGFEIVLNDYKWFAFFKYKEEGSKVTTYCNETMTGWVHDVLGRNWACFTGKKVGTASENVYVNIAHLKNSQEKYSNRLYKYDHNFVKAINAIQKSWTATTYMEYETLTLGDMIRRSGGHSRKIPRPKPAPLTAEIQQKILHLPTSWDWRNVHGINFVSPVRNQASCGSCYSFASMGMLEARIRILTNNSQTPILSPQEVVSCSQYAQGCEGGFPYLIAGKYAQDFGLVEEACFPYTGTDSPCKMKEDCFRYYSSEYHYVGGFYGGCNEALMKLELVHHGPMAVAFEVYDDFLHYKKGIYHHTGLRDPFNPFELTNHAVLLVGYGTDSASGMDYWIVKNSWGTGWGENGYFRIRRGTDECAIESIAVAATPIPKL

T1 sequence (P97821 25-134 limits assumed): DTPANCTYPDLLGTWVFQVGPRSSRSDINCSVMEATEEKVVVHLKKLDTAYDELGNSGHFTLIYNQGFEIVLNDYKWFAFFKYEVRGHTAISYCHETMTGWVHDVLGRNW
T1 sequence (P97821 231-393 limits assumed): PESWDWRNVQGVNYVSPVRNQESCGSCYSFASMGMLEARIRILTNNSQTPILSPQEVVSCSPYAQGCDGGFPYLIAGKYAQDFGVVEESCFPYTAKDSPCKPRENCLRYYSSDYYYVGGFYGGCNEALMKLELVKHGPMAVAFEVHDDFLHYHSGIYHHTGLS
T1 sequence (P97821 394-462 limits assumed): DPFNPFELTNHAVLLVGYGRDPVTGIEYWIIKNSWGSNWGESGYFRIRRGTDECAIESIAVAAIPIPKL

Row | IC50 [1] | IC50 [2] | inhibition at 0.01 µM [3] | Structure (SMILES)
1 | > 20 nM | > 15 nM | ≤ 40% | CN1CCCC2(C1)C(=O)N(C)c1ccc(-c3ccc(C[C@@H](C#N)NC(=O)[C@@H]4CNCCCO4)cc3)cc12 (stereo partly drawn) [Compound 18, (2S)—N-[(1S)-1-cyano-2-(4-{1,1′-dimethyl-2-oxospiro[indole-3,3′-piperidin]-5-yl}phenyl)ethyl]-1,4-oxazepane-2-carboxamide]
2 | > 20 nM | > 15 nM | ≤ 40% | N#C[C@H](Cc1ccc(-c2cnc3c(n2)CCCC3)cc1)NC(=O)[C@@H]1CNCCCO1 [Compound A11, (2S)—N-[(1S)-1-cyano-2-[4-(5,6,7,8-tetrahydroquinoxalin-2-yl)phenyl]ethyl]-1,4-oxazepane-2-carboxamide]
